Source: patent US20240041976A1, “COMPOSITION AND USE” (priority 2020, published 2024)
Where two headings read alike, the source gives them in different places. No end group written: not given here.

B1: Garvicin KS: three-peptide leaderless bacteriocin (GarA, GarB, GarC; SEQ ID NO:6-8), peptides synthesized (peptide, listed as Lactococcus garvieae)
chain 1: MGAIIKAGAKIVGKGVLGGGASWLGWNVGEKIWK
chain 2: MGAIIKAGAKIIGKGLLGGAAGGATYGGLKKIFG
chain 3: MGAIIKAGAKIVGKGALTGGGVWLAEKLFGGK

Columns and labels:
[1] = system: S. aureus ATTC 10832 biofilm; experiment: Biofilm-oriented antimicrobial test (BOAT), MIC50 in biofilms; assay type: cell-based, Staphylococcus aureus; conditions: for MIC50: individual component
Experimental: (§1) Synergistic interactions between antimicrobials were determined using the fractional inhibition concentration (FIC). The FIC values were calculated as follows: the sum of the FIC =FICa+FICb+FICc, where the FICa means MIC of A in combination/MIC of A alone, FICb means MIC of B in combination/MIC of B, and FICc means MIC of C in combination/MIC of C alone. Effects were considered as synergistic if FIC was ≤0.5 for two components mixture and ≤0.75 for three components mixture.
Staphylococcus aureus strains were inoculated in 5 ml of TSB and incubated O/N at 37° C. Ten μl of the O/N cultures were then inoculated in 90 μl of TSB supplemented with 1% glucose and 1% NaCl (TSB-GN) in the appropriate wells of a 96-well microtiter plate (Sarstedt) to a final volume of 100 μl. The plates were then incubated at 37° C. for 24 h. After the incubation, the presence of the biofilm at the bottom of the wells was assessed visually.
The BOAT assay was performed as described previously (Gronseth et al., 2017, Int. J. Pediatr. Otorhinolaryngol., Vol. 103, p 58-64) with some modifications. The serial dilutions of the antimicrobials were prepared in challenge plates as follows: 175 μl of TSB were transferred in each row of a 96-well microtiter plate, except for the first row, according to the number of microbial strains to treat. In the first row of the plate, the antimicrobials were diluted to their respective working concentrations in a final volume of 350 μl of TSB. From the first row, 175 μl of the antimicrobial dilutions were then transferred to the second row of the plate and further serially diluted to the bottom of the plate. The same procedure was followed to prepare the controls, except that instead of the antimicrobials an equivalent volume of the respective vehicles were used. The biofilms were allowed to form for 24 h and then washed twice with 100 μl of sterile saline buffer and a total of 150 μl of the antimicrobial and control dilutions were transferred from the challenge plate to the corresponding wells of the biofilm plate. The challenged biofilms were then incubated for an additional 24 h at 37° C. After the challenge period, the antimicrobial dilutions were removed and the biofilms were carefully washed three times with 150 μl of sterile saline buffer. A total of 100 μl of TSB supplemented with 0.025% of triphenyl-tetrazolium chloride (TTC, Sigma) were then added to each well of the plate and further incubated at 37° C. for 5h. The results were then assessed by monitoring the development (or not) of red formazan (red colour), denoting the retention of metabolic activity by bacterial cells (Moussa et al., 2013, J. Mycol., Vol. 2013; Perez et al., 2010, Lett. Appl. Microbiol., Vol. 51, p 331-337). The medium was then removed and 200 μl of an ethanol:acetone (70:30) mixture was added to the wells and incubated O/N in order to extract the red formazan. The amount of extracted dye, reflecting the degree of bacterial cell metabolic activity, was then quantified by spectrophotometric readings at 492 nm.

[2] = system: three MRSA strains (ATCC33591-lux, USA-300 and MRSA 43484); experiment: AAMP assay and checkerboard synergy, summary; assay type: cell-based, Staphylococcus aureus
Experimental: Briefly, equal amounts of antimicrobial A were applied on microtiter plate 1 in wells A1-H1 and then diluted two-fold to wells 2-12. Similarly, equal amounts of antimicrobial B were applied on microtiter plate 2 in wells A1-A12 and diluted two-fold in wells B-H. Volumes of 50 μl of antimicrobial A from each well of microtiter plate 1 were transferred into microtiter plate 3, except for wells H1-H12. Similarly, the same volumes were transferred from microtiter plate 2 into plate 3, except for wells A1-A8. […] A 50 μl volume of pure broth was added into each well in lines H1-H12 and A1-A8 which were used to estimate MIC values of pure substances (blank).
Three-component synergy was assessed by mixing the three components (100 μg of PenG, 50 μg of GarKS and 2.5 μg of MP1) into one well of a microtiter plate, compared with activity of individual antimicrobials on the same plate.

S. haemolyticus 4072 = experiment: microbe, parasite or virus in culture
Experimental: Growth inhibition assays were performed in 96-well microtiter plates as described previously (Chi and Holo, 2018, supra). Briefly, 135 μl of TSB were dispensed in each well of a microtiter plate (according to the number of bacterial strains tested) except in the wells of the first row. The antimicrobials were diluted in TSB to working concentrations in a final volume of 285 μl and dispensed in the wells of the first row. The working concentrations were 100 μg/μl for garvicin KS, 10 μg/μl for micrococcin P1 and 1 mg/ml for penicillin G. From the first row, 150 μl of the antimicrobials were then serially diluted (two-fold dilutions) in a sequential fashion until the last row of the plate. Finally, 15 μl of a fresh O/N culture of each strain were added in the appropriate wells to reach a final volume of 150 μl in each well. The plates were then incubated at 37° C. for 24 h. The growth inhibition was expressed as minimum inhibitory concentration (MIC50), which refers to the minimum concentration of the antimicrobial needed to reduce at least 50% of the microbial growth compared to the untreated control. The MIC50 was assessed by optical density readings at 600 nm (O.D.600).
as §1
Bacteriocins and antimicrobial assays. […] These bacteriocins were all solubilized in 0.1% (vol/vol) trifluoracetic acid (TFA; Sigma-Aldrich). […] Cell growth inhibition assays and antimicrobial synergy determination was performed in line with Example 1.
To investigate whether there was synergy between the three bacteriocins (K1-EJ, GarKS and MP1), a checkboard antimicrobial assay was performed. The selected strains were treated for 5, 24 and 48 h with a range of concentrations of K1-EJ, GarKS and MP1 alone or in different combinations.

[3] = Staphylococcus aureus, ATTC10832BIOFILM, read-out: MIC50
[4] = garvicin KS + micrococcin P1 + penicillin G
[5] = triple combination PenG, GarKS and MP1
[6] = 4072, 24 h, K1-EJ + GarKS + MP1
[7] = 4072, 48 h, K1-EJ + GarKS + MP1

Molecule	MIC50 [1, 3] [µg/mL]	MIC50 of the component in combination [1, 4] [µg/mL]	MIC50 of the component in combination ([1]; garvicin KS + penicillin G) [µg/mL]	MIC of the antimicrobial in comb. with GarKS ([2]; All three strains) [µg/mL]	MIC of the component when combined ([2]; MP1 with PenG) [µg/mL]	reduction of MIC when combined ([2]; MP1 with PenG)	MIC of the component when combined [2, 5] [µg/mL]	reduction of MIC when combined [2, 5]	MIC of the component in combination (S. haemolyticus 4072; 4072, 5 h, K1-EJ + GarKS) [µg/mL]	MIC of the component in combination (S. haemolyticus 4072; 4072, 5 h, K1-EJ + GarKS + MP1) [µg/mL]	MIC of the component in combination (S. haemolyticus 4072; 4072, 5 h, K1-EJ + MP1) [µg/mL]	MIC of the component in combination (S. haemolyticus 4072; 4072, 24 h, K1-EJ + GarKS) [µg/mL]	MIC of the component in combination (S. haemolyticus 4072; [6]) [µg/mL]	MIC of the component in combination (S. haemolyticus 4072; 4072, 24 h, K1-EJ + MP1) [µg/mL]	MIC of the component in combination (S. haemolyticus 4072; 4072, 48 h, K1-EJ + GarKS) [µg/mL]	MIC of the component in combination (S. haemolyticus 4072; [7]) [µg/mL]	MIC of the component in combination (S. haemolyticus 4072; 4072, 48 h, K1-EJ + MP1) [µg/mL]	MIC50 of the component in combination ([1]; garvicin KS + micrococcin P1) [µg/mL]	MIC of the component when GarKS and MP1 are combined ([2]; checkerboard assay) [µg/mL]	MIC of the component in combination (S. haemolyticus 4072; 4072, 5 h, GarKS + MP1) [µg/mL]	other results
CC1(C)S[C@@H]2[C@H](NC(=O)Cc3ccccc3)C(=O)N2[C@H]1C(=O)O [Penicillin G]	10000	310	630	16	16 to 32	80-150 times	8	more than 300 times	–	–	–	–	–	–	–	–	–	–	–	–	MIC of GarKS in comb. antibiotic/GarKS/MP1 ([2]; All three strains): 4 µg/mL; MIC of MP1 in comb. antibiotic/GarKS/MP1 ([2]; All three strains): 0.08 µg/mL; MIC of MP1 in comb. with the labelled antibiotic ([2]; All three strains): 0.16 to 0.3 µg/mL; MIC of the antibiotic in comb. with GarKS and MP1 ([2]; All three strains): 8 µg/mL; MIC of the antibiotic in comb. with MP1 ([2]; All three strains): 16 to 32 µg/mL; MIC of the component when combined ([2]; GarKS with Amp or PenG): 16 µg/mL; MIC ([2]; Staphylococcus aureus, 24 h, All three strains, read-out: MIC, single antimicrobial): > 2500 µg/mL; synergy with GarKS ([2]; checkerboard assay): moderate synergy
MKFKFNPTGTIVKKLTQYEINWYKQQYGRYPWERPVA [Hybrid K1-EJ]	–	–	–	–	–	–	–	–	1.5	0.68	0.36	12	1.6	1.5	13	5.8	1.6	–	–	–	MIC (S. haemolyticus 4072; 4072, 5 h): 0.78 µg/mL; MIC (S. haemolyticus 4072; 4072, 24 h): >100 µg/mL; MIC (S. haemolyticus 4072; 4072, 48 h): >100 µg/mL
C/C=C(\NC(=O)c1csc(-c2csc(-c3ccc4c(n3)-c3csc(n3)[C@H]([C@@H](C)O)NC(=O)c3csc(n3)[C@H](C(C)C)NC(=O)c3csc(n3)/C(=C/C)NC(=O)[C@H]([C@@H](C)O)NC(=O)c3csc-4n3)n2)n1)C(=O)NC[C@@H](C)O [MP1, micrococcin P1]	> 100	3.1	–	0.16	0.16 to 0.3	8-16 times	0.08	about 30 times	–	0.068	0.036	–	0.16	0.15	–	0.58	0.16	25	0.16	0.073	MIC of the component in combination (S. haemolyticus 4072; 4072, 24 h, GarKS + MP1): 0.16 µg/mL; MIC of the component in combination (S. haemolyticus 4072; 4072, 48 h, GarKS + MP1): 0.31 µg/mL; MIC (S. haemolyticus 4072; Staphylococcus haemolyticus, 4072, 5 h): 0.039 µg/mL; MIC (S. haemolyticus 4072; Staphylococcus haemolyticus, 4072, 24 h): > 10 µg/mL; MIC (S. haemolyticus 4072; Staphylococcus haemolyticus, 4072, 48 h): 0.63 µg/mL
B1	–	160	310	–	–	–	4	about 8 times	1.5	0.68	–	12	1.6	–	13	5.8	–	1250	8	0.73	MIC50 [1]: 2500 µg/mL; reduction of MIC when combined ([2]; GarKS with Amp or PenG): 4 times; MIC (S. haemolyticus 4072; 4072, 5 h, individual component): 23.6 µg/mL; MIC of the component in combination (S. haemolyticus 4072; 4072, 24 h, GarKS + MP1): 1.6 µg/mL; MIC (S. haemolyticus 4072; 4072, 24 h, individual component): 49 µg/mL; MIC of the component in combination (S. haemolyticus 4072; 4072, 48 h, GarKS + MP1): 3.1 µg/mL; MIC (S. haemolyticus 4072; 4072, 48 h, individual component): 52 µg/mL
